Compound in one test: Cc1cn(-c2cc(NC(=O)c3ccc(C)c(Nc4nccc(-c5cccnc5)n4)c3)cc(C(F)(F)F)c2)cn1 [NILOTINIB]
Put plainly: surviving fraction relative to DMSO-only wells; higher = less growth inhibition. The settings on record: exposure time: 5 days. Put shortly: (§1)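 Luminescence normalised to the median of DMSO-only wells defines surviving fraction, with viability read by CellTiter-Glo. Signal was recorded after 10 minutes at room temperature, once log-phase tumour cell lines seeded at 250–500 cells per well in 384-well plates had spent 24 hours settling and then five days under continuous exposure to inhibitors at 0.5, 1, 5, 10, 50, 100, 500 and 1000 nM.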

Compound in test [1]: C[C@@H]1CN(CC(=O)Nc2ccc3c(c2)Cc2cccc(-c4cc(=O)cc(N5CCOCC5)o4)c2S3)C[C@H](C)O1
The description is as above. As to conditions: exposure time: 5 days. The gist of the method:
as §1

± gives the standard deviation of the averaged measurements.

As to KPD BONE, the surviving fraction with NILOTINIB (0.5 nM) was 1.04 ± 0.097; with NILOTINIB (1 nM) it was 0.981 ± 0.038; with NILOTINIB (5 nM) it was 1.06 ± 0.032; in the test with NILOTINIB (10 nM), 1.02 ± 0.026; with NILOTINIB (50 nM), 1.03 ± 0.03; with NILOTINIB (100 nM) it was 1.11 ± 0.055. For the same test system, the surviving fraction stood at 0.925 ± 0.033 with NILOTINIB (500 nM); 0.841 ± 0.028 in the test with NILOTINIB (1000 nM); 0.979 ± 0.039 in test [1] (0.5 nM); 0.946 ± 0.05 in test [1] (1 nM); 1.02 ± 0.047 in test [1] (5 nM); 1.01 ± 0.068 in test [1] (10 nM). The surviving fraction in test [1] (50 nM) came to 1 ± 0.092; in test [1] (100 nM), 1.01 ± 0.049; in test [1] (500 nM) it was 0.865 ± 0.02; in test [1] (1000 nM) it was 0.7 ± 0.034.

In the case of MHM BONE, the surviving fraction with NILOTINIB (0.5 nM) came out at 1.01 ± 0.028; in the test with NILOTINIB (1 nM), 0.999 ± 0.05; with NILOTINIB (5 nM), 1.09 ± 0.014; with NILOTINIB (10 nM), 1.06 ± 0.028; in the test with NILOTINIB (50 nM), 1.11 ± 0.023; with NILOTINIB (100 nM) it was 1.13 ± 0.025. For the same test system, the surviving fraction with NILOTINIB (500 nM) came to 1.135 ± 0.0021; with NILOTINIB (1000 nM) it was 1.19 ± 0.059; in test [1] (0.5 nM), 1.03 ± 0.024; in test [1] (1 nM), 1.01 ± 0.055; in test [1] (5 nM), 1.05 ± 0.012; in test [1] (10 nM), 1.05 ± 0.021. Moreover, the surviving fraction came to 1.08 ± 0.0062 in test [1] (50 nM), 1.1 ± 0.018 in test [1] (100 nM), 1.08 ± 0.024 in test [1] (500 nM) and 1.07 ± 0.032 in test [1] (1000 nM).

Turning to A549 LUNG, the surviving fraction with NILOTINIB (0.5 nM) was 1.06 ± 0.018; with NILOTINIB (1 nM), 1.042 ± 0.01; in the test with NILOTINIB (5 nM), 1.11 ± 0.024; with NILOTINIB (10 nM) it was 1.08 ± 0.037; with NILOTINIB (50 nM), 1.1 ± 0.03; in the test with NILOTINIB (100 nM), 1.13 ± 0.045. In addition, the surviving fraction with NILOTINIB (500 nM) worked out at 1.08 ± 0.028; in the test with NILOTINIB (1000 nM) it was 1.11 ± 0.043; in test [1] (0.5 nM), 1.05 ± 0.049; in test [1] (1 nM) it was 1.05 ± 0.025; in test [1] (5 nM) it was 1.08 ± 0.02; in test [1] (10 nM), 1.08 ± 0.021. Besides, the surviving fraction was 1.07 ± 0.012 in test [1] (50 nM), 1.098 ± 0.0099 in test [1] (100 nM), 1.1 ± 0.016 in test [1] (500 nM) and 1.13 ± 0.032 in test [1] (1000 nM).

As for SUM44 BREAST, the surviving fraction with NILOTINIB (0.5 nM) is 1.03 ± 0.19; with NILOTINIB (1 nM), 1.04 ± 0.21; in the test with NILOTINIB (5 nM), 1.08 ± 0.23; in the test with NILOTINIB (10 nM), 1.07 ± 0.15; with NILOTINIB (50 nM), 0.958 ± 0.012; with NILOTINIB (100 nM), 0.934 ± 0.059. In addition, the surviving fraction with NILOTINIB (500 nM) turned out to be 0.943 ± 0.064; in the test with NILOTINIB (1000 nM), 0.932 ± 0.083; in test [1] (0.5 nM), 0.936 ± 0.036; in test [1] (1 nM), 0.936 ± 0.034; in test [1] (5 nM) it was 0.977 ± 0.028; in test [1] (10 nM), 0.968 ± 0.023. Further, the surviving fraction in test [1] (50 nM) stood at 0.911 ± 0.044; in test [1] (100 nM) it was 0.915 ± 0.067; in test [1] (500 nM) it was 0.898 ± 0.083; in test [1] (1000 nM) it was 0.892 ± 0.031.

Regarding COLO320DM LARGE INTESTINE, the surviving fraction with NILOTINIB (0.5 nM) was 1.12 ± 0.059; in the test with NILOTINIB (1 nM) it was 1.04 ± 0.086; in the test with NILOTINIB (5 nM) it was 1.05 ± 0.13; with NILOTINIB (10 nM) it was 1.08 ± 0.061; in the test with NILOTINIB (50 nM), 1.06 ± 0.095; with NILOTINIB (100 nM), 0.961 ± 0.022. Besides, the surviving fraction is 0.949 ± 0.024 with NILOTINIB (500 nM); 0.764 ± 0.04 with NILOTINIB (1000 nM); 1.04 ± 0.11 in test [1] (0.5 nM); 1.06 ± 0.12 in test [1] (1 nM); 1.05 ± 0.13 in test [1] (5 nM); 1.07 ± 0.059 in test [1] (10 nM). Besides, the surviving fraction in test [1] (50 nM) worked out at 1.04 ± 0.033; in test [1] (100 nM), 1.09 ± 0.037; in test [1] (500 nM), 1.03 ± 0.056; in test [1] (1000 nM), 0.99 ± 0.015.

HU09 BONE: the surviving fraction in the test with NILOTINIB (0.5 nM) was found to be 0.958 ± 0.043; with NILOTINIB (1 nM) it was 1.06 ± 0.1; with NILOTINIB (5 nM), 0.999 ± 0.096; in the test with NILOTINIB (10 nM) it was 1.09 ± 0.051; with NILOTINIB (50 nM), 0.861 ± 0.19; in the test with NILOTINIB (100 nM), 0.756 ± 0.067. Further, the surviving fraction came out at 0.481 ± 0.014 with NILOTINIB (500 nM); 0.397 ± 0.075 in the test with NILOTINIB (1000 nM); 0.994 ± 0.096 in test [1] (0.5 nM); 0.996 ± 0.1 in test [1] (1 nM); 1.13 ± 0.061 in test [1] (5 nM); 1.1 ± 0.14 in test [1] (10 nM). Also, the surviving fraction was 1.03 ± 0.12 in test [1] (50 nM), 1.42 ± 0.58 in test [1] (100 nM), 0.778 ± 0.065 in test [1] (500 nM) and 0.763 ± 0.14 in test [1] (1000 nM).

SUM149 BREAST: the surviving fraction in the test with NILOTINIB (0.5 nM) came out at 0.884 ± 0.092; with NILOTINIB (1 nM), 0.895 ± 0.024; with NILOTINIB (5 nM), 0.971 ± 0.057; in the test with NILOTINIB (10 nM), 0.833 ± 0.072; with NILOTINIB (50 nM) it was 0.898 ± 0.053; in the test with NILOTINIB (100 nM), 0.786 ± 0.061. Also, the surviving fraction came to 0.872 ± 0.071 with NILOTINIB (500 nM); 0.833 ± 0.053 in the test with NILOTINIB (1000 nM); 0.874 ± 0.049 in test [1] (0.5 nM); 0.885 ± 0.1 in test [1] (1 nM); 0.96 ± 0.089 in test [1] (5 nM); 0.862 ± 0.035 in test [1] (10 nM). The surviving fraction amounted to 1.01 ± 0.017 in test [1] (50 nM), 0.917 ± 0.029 in test [1] (100 nM), 0.819 ± 0.11 in test [1] (500 nM) and 0.667 ± 0.024 in test [1] (1000 nM).

Take VCAP PROSTATE: the surviving fraction in the test with NILOTINIB (0.5 nM) was 0.999 ± 0.1; with NILOTINIB (1 nM), 1.03 ± 0.088; with NILOTINIB (5 nM) it was 1.16 ± 0.13; with NILOTINIB (10 nM), 1.06 ± 0.076; with NILOTINIB (50 nM), 1.02 ± 0.075; with NILOTINIB (100 nM) it was 0.966 ± 0.073. Further, the surviving fraction came out at 0.952 ± 0.14 in the test with NILOTINIB (500 nM); 0.862 ± 0.067 with NILOTINIB (1000 nM); 1.01 ± 0.035 in test [1] (0.5 nM); 1.08 ± 0.066 in test [1] (1 nM); 1.11 ± 0.14 in test [1] (5 nM); 1.18 ± 0.15 in test [1] (10 nM). For the same test system, the surviving fraction in test [1] (50 nM) worked out at 1.19 ± 0.094; in test [1] (100 nM) it was 1.14 ± 0.11; in test [1] (500 nM) it was 0.922 ± 0.057; in test [1] (1000 nM) it was 0.967 ± 0.079.

Source of the values: the supplement of paper PMC6045584.
